Key:
[1] = test system: E. faecalis (CL 4877); assay: Zone of inhibition screen, 96 well agar array format; format: cell-based; set-up: scale not given here
In short: (§1)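 Each compound was tested for antibacterial activity against a shared bacterial panel, with screening carried out on agar in a 96-well array.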

[2] = test system: S. epidermidis (ATCC 12228); assay: as above; format: cell-based; set-up: scale not given here
In short: as §1

[3] = zone of inhibition relative to 1 mg/ml p-chlorobiphenylvancomycin
[4] = zone of inhibition relative to 1 mg/ml stock solution of p-chlorobiphenylvancomycin

Structure (SMILES)	zone score, E. faecalis CL 4877 [1, 3]	zone score, S. epidermidis ATCC 12228 [2, 3]	zone score, E. faecalis CL 4877 [1, 4]	zone score, S. epidermidis ATCC 12228 [2, 4]
CC1OC(OC2C(Oc3c4cc5cc3Oc3ccc(cc3Cl)C(O)C3NC(=O)C(NC(=O)C5NC(=O)C(CC(N)=O)NC(=O)C(NC(=O)Cc5c(F)c(F)c(F)c(F)c5F)C(O)c5ccc(c(Cl)c5)O4)c4ccc(O)c(c4)-c4c(O)cc(O)cc4C(C(=O)O)NC3=O)OC(CO)C(O)C2O)CC(C)(NCc2ccc(-c3ccc(Cl)cc3)cc2)C1O (stereo not shown) [Compound 310]	2	2	–	–
CC1OC(OC2C(Oc3c4cc5cc3Oc3ccc(cc3Cl)[C@@H](O)[C@@H](NC(=O)/C=C\C(N)=O)C(=O)N[C@@H](CC(N)=O)C(=O)N[C@H]5C(=O)NC3C(=O)N[C@H](C(=O)N[C@@H](C(=O)O)c5cc(O)cc(O)c5-c5cc3ccc5O)[C@H](O)c3ccc(c(Cl)c3)O4)OC(CO)C(O)C2O)CC(C)(NCc2ccc(-c3ccc(Cl)cc3)cc2)C1O (stereo partly shown) [Compound 170]	–	–	2	2
CC1OC(OC2C(Oc3c4cc5cc3Oc3ccc(cc3Cl)C(O)C3NC(=O)C(NC(=O)C5NC(=O)C(CC(N)=O)NC(=O)C(NC(=O)c5ccncc5)C(O)c5ccc(c(Cl)c5)O4)c4ccc(O)c(c4)-c4c(O)cc(O)cc4C(C(=O)O)NC3=O)OC(CO)C(O)C2O)CC(C)(NCc2ccc(-c3ccc(Cl)cc3)cc2)C1O (stereo not shown) [Compound 292]	2	2	–	–
CC1OC(OC2C(Oc3c4cc5cc3Oc3ccc(cc3Cl)C(O)C3NC(=O)C(NC(=O)C5NC(=O)C(CC(N)=O)NC(=O)C(NC(=O)CNC(=O)C=Cc5ccco5)C(O)c5ccc(c(Cl)c5)O4)c4ccc(O)c(c4)-c4c(O)cc(O)cc4C(C(=O)O)NC3=O)OC(CO)C(O)C2O)CC(C)(NCc2ccc(-c3ccc(Cl)cc3)cc2)C1O (stereo not shown) [Compound 306]	2	2	–	–
CC1OC(OC2C(Oc3c4cc5cc3Oc3ccc(cc3Cl)C(O)C3NC(=O)C(NC(=O)C5NC(=O)C(CC(N)=O)NC(=O)C(NC(=O)Cn5cnnn5)C(O)c5ccc(c(Cl)c5)O4)c4ccc(O)c(c4)-c4c(O)cc(O)cc4C(C(=O)O)NC3=O)OC(CO)C(O)C2O)CC(C)(NCc2ccc(-c3ccc(Cl)cc3)cc2)C1O (stereo not shown) [Compound 228]	2	2	–	–
CC(=O)NC1C(=O)NC(CC(N)=O)C(=O)NC2C(=O)NC3C(=O)NC(C(=O)NC(C(=O)O)c4cc(O)cc(O)c4-c4cc3ccc4O)C(O)c3ccc(c(Cl)c3)Oc3cc2cc(c3OC2OC(CO)C(O)C(O)C2OC2CC(C)(NCc3ccc(-c4ccc(Cl)cc4)cc3)C(O)C(C)O2)Oc2ccc(cc2Cl)C1O (stereo not shown) [Compound 279]	2	2	–	–
CCOC(=O)C=CC(=O)NC1C(=O)NC(CC(N)=O)C(=O)NC2C(=O)NC3C(=O)NC(C(=O)NC(C(=O)O)c4cc(O)cc(O)c4-c4cc3ccc4O)C(O)c3ccc(c(Cl)c3)Oc3cc2cc(c3OC2OC(CO)C(O)C(O)C2OC2CC(C)(NCc3ccc(-c4ccc(Cl)cc4)cc3)C(O)C(C)O2)Oc2ccc(cc2Cl)C1O (stereo not shown) [Compound 296]	2	2	–	–
CC(NC=O)C(=O)NC1C(=O)NC(CC(N)=O)C(=O)NC2C(=O)NC3C(=O)NC(C(=O)NC(C(=O)O)c4cc(O)cc(O)c4-c4cc3ccc4O)C(O)c3ccc(c(Cl)c3)Oc3cc2cc(c3OC2OC(CO)C(O)C(O)C2OC2CC(C)(NCc3ccc(-c4ccc(Cl)cc4)cc3)C(O)C(C)O2)Oc2ccc(cc2Cl)C1O (mixture of isomers) [Compound 325]	2	2	–	–
CC1OC(OC2C(Oc3c4cc5cc3Oc3ccc(cc3Cl)C(O)C3NC(=O)C(NC(=O)C5NC(=O)C(CC(N)=O)NC(=O)C(NC(=O)c5cccnc5N)C(O)c5ccc(c(Cl)c5)O4)c4ccc(O)c(c4)-c4c(O)cc(O)cc4C(C(=O)O)NC3=O)OC(CO)C(O)C2O)CC(C)(NCc2ccc(-c3ccc(Cl)cc3)cc2)C1O (stereo not shown) [Compound 237]	2	2	–	–
CC1OC(OC2C(Oc3c4cc5cc3Oc3ccc(cc3Cl)C(O)C3NC(=O)C(NC(=O)C5NC(=O)C(CC(N)=O)NC(=O)C(NC(=O)C[N+](C)(C)C)C(O)c5ccc(c(Cl)c5)O4)c4ccc(O)c(c4)-c4c(O)cc(O)cc4C(C(=O)O)NC3=O)OC(CO)C(O)C2O)CC(C)(NCc2ccc(-c3ccc(Cl)cc3)cc2)C1O (stereo not shown) [Compound 129]	–	–	2	2
CC1OC(OC2C(Oc3c4cc5cc3Oc3ccc(cc3Cl)C(O)C3NC(=O)C(NC(=O)C5NC(=O)C(CC(N)=O)NC(=O)C(NC(=O)c5cccc(C(F)(F)F)c5)C(O)c5ccc(c(Cl)c5)O4)c4ccc(O)c(c4)-c4c(O)cc(O)cc4C(C(=O)O)NC3=O)OC(CO)C(O)C2O)CC(C)(NCc2ccc(-c3ccc(Cl)cc3)cc2)C1O (stereo not shown) [Compound 247]	2	2	–	–
CC1NC(=O)NC1CCCCCC(=O)NC1C(=O)NC(CC(N)=O)C(=O)NC2C(=O)NC3C(=O)NC(C(=O)NC(C(=O)O)c4cc(O)cc(O)c4-c4cc3ccc4O)C(O)c3ccc(c(Cl)c3)Oc3cc2cc(c3OC2OC(CO)C(O)C(O)C2OC2CC(C)(NCc3ccc(-c4ccc(Cl)cc4)cc3)C(O)C(C)O2)Oc2ccc(cc2Cl)C1O (stereo not shown) [Compound 284]	2	2	–	–
CC1OC(OC2C(Oc3c4cc5cc3Oc3ccc(cc3Cl)C(O)C3NC(=O)C(NC(=O)C5NC(=O)C(CC(N)=O)NC(=O)C(NC(=O)c5ccccc5N)C(O)c5ccc(c(Cl)c5)O4)c4ccc(O)c(c4)-c4c(O)cc(O)cc4C(C(=O)O)NC3=O)OC(CO)C(O)C2O)CC(C)(NCc2ccc(-c3ccc(Cl)cc3)cc2)C1O (stereo not shown) [Compound 280]	2	2	–	–
CNC(=O)C=CC(=O)NC1C(=O)NC(CC(N)=O)C(=O)NC2C(=O)NC3C(=O)NC(C(=O)NC(C(=O)O)c4cc(O)cc(O)c4-c4cc3ccc4O)C(O)c3ccc(c(Cl)c3)Oc3cc2cc(c3OC2OC(CO)C(O)C(O)C2OC2CC(C)(NCc3ccc(-c4ccc(Cl)cc4)cc3)C(O)C(C)O2)Oc2ccc(cc2Cl)C1O (stereo not shown) [Compound 309]	2	2	–	–
CC1OC(OC2C(Oc3c4cc5cc3Oc3ccc(cc3Cl)C(O)C3NC(=O)C(NC(=O)C5NC(=O)C(CC(N)=O)NC(=O)C(NC(=O)c5ccc[n+]([O-])c5)C(O)c5ccc(c(Cl)c5)O4)c4ccc(O)c(c4)-c4c(O)cc(O)cc4C(C(=O)O)NC3=O)OC(CO)C(O)C2O)CC(C)(NCc2ccc(-c3ccc(Cl)cc3)cc2)C1O (stereo not shown) [Compound 308]	2	2	–	–
CC1OC(OC2C(Oc3c4cc5cc3Oc3ccc(cc3Cl)C(O)C3NC(=O)C(NC(=O)C5NC(=O)C(CC(N)=O)NC(=O)C(NC(=O)Cc5ccsc5)C(O)c5ccc(c(Cl)c5)O4)c4ccc(O)c(c4)-c4c(O)cc(O)cc4C(C(=O)O)NC3=O)OC(CO)C(O)C2O)CC(C)(NCc2ccc(-c3ccc(Cl)cc3)cc2)C1O (stereo not shown) [Compound 320]	2	2	–	–
CSCCC(NC(C)=O)C(=O)NC1C(=O)NC(CC(N)=O)C(=O)NC2C(=O)NC3C(=O)NC(C(=O)NC(C(=O)O)c4cc(O)cc(O)c4-c4cc3ccc4O)C(O)c3ccc(c(Cl)c3)Oc3cc2cc(c3OC2OC(CO)C(O)C(O)C2OC2CC(C)(NCc3ccc(-c4ccc(Cl)cc4)cc3)C(O)C(C)O2)Oc2ccc(cc2Cl)C1O (stereo not shown) [Compound 182]	–	–	2	2
CC(O)C(=O)NC1C(=O)NC(CC(N)=O)C(=O)NC2C(=O)NC3C(=O)NC(C(=O)NC(C(=O)O)c4cc(O)cc(O)c4-c4cc3ccc4O)C(O)c3ccc(c(Cl)c3)Oc3cc2cc(c3OC2OC(CO)C(O)C(O)C2OC2CC(C)(NCc3ccc(-c4ccc(Cl)cc4)cc3)C(O)C(C)O2)Oc2ccc(cc2Cl)C1O (stereo not shown) [Compound 294]	2	2	–	–
CC1OC(OC2C(Oc3c4cc5cc3Oc3ccc(cc3Cl)C(O)C3NC(=O)C(NC(=O)C5NC(=O)C(CC(N)=O)NC(=O)C(NC(=O)C(N)CC(N)=O)C(O)c5ccc(c(Cl)c5)O4)c4ccc(O)c(c4)-c4c(O)cc(O)cc4C(C(=O)O)NC3=O)OC(CO)C(O)C2O)CC(C)(NCc2ccc(-c3ccc(Cl)cc3)cc2)C1O (stereo not shown) [Compound 53]	–	–	2	2
CCOC(=O)C=CC(=O)NC1C(=O)NC(CC(N)=O)C(=O)NC2C(=O)NC3C(=O)NC(C(=O)NC(C(=O)O)c4cc(O)cc(O)c4-c4cc3ccc4O)C(O)c3ccc(c(Cl)c3)Oc3cc2cc(c3OC2OC(CO)C(O)C(O)C2OC2CC(C)(NCc3ccc(-c4ccc(Cl)cc4)cc3)C(O)C(C)O2)Oc2ccc(cc2Cl)C1O (stereo not shown) [Compound 288]	2	2	–	–
CC1OC(OC2C(Oc3c4cc5cc3Oc3ccc(cc3Cl)C(O)C3NC(=O)C(NC(=O)C5NC(=O)C(CC(N)=O)NC(=O)C(NC(=O)CNC=O)C(O)c5ccc(c(Cl)c5)O4)c4ccc(O)c(c4)-c4c(O)cc(O)cc4C(C(=O)O)NC3=O)OC(CO)C(O)C2O)CC(C)(NCc2ccc(-c3ccc(Cl)cc3)cc2)C1O (stereo not shown) [Compound 193]	–	–	2	2
CC1OC(OC2C(Oc3c4cc5cc3Oc3ccc(cc3Cl)C(O)C3NC(=O)C(NC(=O)C5NC(=O)C(CC(N)=O)NC(=O)C(NC(=O)c5cccs5)C(O)c5ccc(c(Cl)c5)O4)c4ccc(O)c(c4)-c4c(O)cc(O)cc4C(C(=O)O)NC3=O)OC(CO)C(O)C2O)CC(C)(NCc2ccc(-c3ccc(Cl)cc3)cc2)C1O (stereo not shown) [Compound 319]	2	2	–	–
COC(=O)CCC(=O)NC1C(=O)NC(CC(N)=O)C(=O)NC2C(=O)NC3C(=O)NC(C(=O)NC(C(=O)O)c4cc(O)cc(O)c4-c4cc3ccc4O)C(O)c3ccc(c(Cl)c3)Oc3cc2cc(c3OC2OC(CO)C(O)C(O)C2OC2CC(C)(NCc3ccc(-c4ccc(Cl)cc4)cc3)C(O)C(C)O2)Oc2ccc(cc2Cl)C1O (stereo not shown) [Compound 305]	–	2	–	–
CC1OC(OC2C(Oc3c4cc5cc3Oc3ccc(cc3Cl)C(O)C3NC(=O)C(NC(=O)C5NC(=O)C(CC(N)=O)NC(=O)C(NC(=O)C(N)=O)C(O)c5ccc(c(Cl)c5)O4)c4ccc(O)c(c4)-c4c(O)cc(O)cc4C(C(=O)O)NC3=O)OC(CO)C(O)C2O)CC(C)(NCc2ccc(-c3ccc(Cl)cc3)cc2)C1O (stereo not shown) [Compound 327]	–	2	–	–
